Experimental data as given in patent US12187705B2, “Heteroaryl-triazole and heteroaryl-tetrazole compounds as pesticides” (Bayer Aktiengesellschaft, priority 2018, dated 2025).

What was measured:
Type in all cases: in vivo
[1] = test system: Ctenocephalides felis; test: Ctenocephalides felis oral test; details: Ctenocephalides felis, in Bos taurus, po, 48 h
Summary of the method: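 About 20 adult unfed fleas fed through parafilm on cattle blood containing compound (DMSO concentrate diluted in blood); blood held at 37° C., fleas at room temperature. Mortality in % scored after 2 days (100% = all killed).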

[2] = test system: Diabrotica balteata; test: Diabrotica balteata spray test; details: Diabrotica balteata, 168 h; 160 μg/well, wheat seeds, after 7 days; read-out: efficacy (seedlings grown)
Summary of the method: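 Wheat seeds germinated 1 day on agar were sprayed with compound diluted in water with 1000 ppm emulsifier, then infested with 10-20 Diabrotica balteata larvae. Efficacy in % scored after 7 days: 100% = seedlings grown as untreated, uninfected control; 0% = no seedlings grown.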

[3] = test system: Myzus persicae; test: Myzus persicae oral test; details: 120 h
Summary of the method: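 Feeding test: compound diluted in water was combined with IPL41 insect medium (33%+15% sugar) under a parafilm seal. A mixed population of green peach aphids fed through the membrane. Mortality (%) was scored after 5 days.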

[4] = test system: Phaedon cochleariae; test: Phaedon cochleariae spray test; details: foliar, 168 h, Chinese cabbage leaf disks, after 7 days
Experimental: Phaedon cochleariae—Spray Test
(§1) To produce a suitable preparation of active compound, 1 part by weight of active compound is mixed with the stated amount of solvents and is diluted with water, containing an emulsifier concentration of 1000 ppm, to the desired concentration. Further test concentrations are prepared by dilution with emulsifier containing water.
Chinese cabbage (Brassica pekinensis) leaf disks are sprayed with a preparation of the active ingredient of the desired concentration. Once dry, the leaf disks are infested with mustard beetle larvae (Phaedon cochleariae).
After 7 days mortality in % is determined. 100% means all beetle larvae have been killed and 0% means none of the beetle larvae have been killed.

[5] = test system: Spodoptera frugiperda; test: Spodoptera frugiperda spray test; details: in Zea mays, 168 h
Summary of the method: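 Compound mixed with solvent, diluted with 1000 ppm emulsifier water to test concentrations; sprayed on maize leaf pieces; dried; larvae added; mortality (%) scored at 7 d.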

[6] = test system: Ctenocephalides felis; test: Ctenocephalides felis in-vitro contact test adult cat flea; details: Ctenocephalides felis; 5 μg/cm^2 (=500 g/ha), after 48 hours; read-out: efficacy (fleas dead or moribund)
Summary of the method: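 Compound in acetone was coated on glass tube walls, giving 5 μg/cm^2 at 900 ppm. 5-10 adult cat fleas were held at room temperature for 48 h, then heat-challenged at 45-50° C. Fleas immotile or uncoordinated were scored dead/moribund, expressed as % efficacy.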

[7] = test system: Boophilus microplus; test: Boophilus microplus injection test; details: Rhipicephalus microplus, 168 h, 20 μg/animal, egg deposition after 7 days, read-out: efficacy (infertile eggs)
Summary of the method: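 Engorged adult female ticks, five per dose, received 1 μl of compound in DMSO injected into the abdomen and were kept in a climate chamber. Fertile egg deposition was checked after 7 days, with eggs of unclear fertility held until hatching at about 42 days. Efficacy 100% = all eggs infertile, 0% = all fertile.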

[8] = test system: Nilaparvata lugens; test: Nilaparvata lugens spray test; details: Nilaparvata lugens, in Oryza sativa, 96 h
Experimental: Nilaparvata lugens—Spray Test
as §1
Rice plants (Oryza sativa) are sprayed with a preparation of the active ingredient of the desired concentration and the plants are infested with the brown planthopper (Nilaparvata lugens).
After 4 days mortality in % is determined. 100% means all planthoppers have been killed and 0% means none of the planthoppers have been killed.

[9] = test system: Aedes aegypti strain MONHEIM; test: Aedes aegypti test (AEDSAE surface treatment & contact assay); details: 24 hours after contact, read-out: efficacy (mortality); for mortality at 20 mg/m2: surface concentration 20 mg/m^2, 30 minutes exposure; for mortality at 4 mg/m2: surface concentration 4 mg/m^2, 30 minutes exposure
Summary of the method: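 Compound dissolved in acetone (2 mg/ml) with 2000 ppm rapeseed oil methyl ester and dried onto a glazed tile. Adult mosquitoes held on the treated surface for 30 minutes exposure. Percent mortality scored 24 hours after contact.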

[10] = test system: Anopheles funestus strain FUMOZ-R; test: Anopheles funestus test (ANPHFU surface treatment & contact assay); details: 24 hours after contact, read-out: efficacy (mortality)
Experimental: Anopheles funestus Test (ANPHFU Surface Treatment & Contact Assay)
(§2) Solvent: Aceton+2000 ppm rapeseed oil methyl ester (RME)
(§3) In order to produce a sufficient, active ingredient containing solution it is necessary to solve the test-compound in the solvent-mix (Acetone at 2 mg/ml/RME 2000 ppm). This solution is pipetted onto a glazed tile and after evaporation of the Acetone, adult mosquitoes of the species Anopheles funestus strain FUMOZ-R (Hunt et al., Med Vet Entomol. 2005 September; 19(3):271-5) are placed onto the dried surface. The exposure time is 30 minutes.
(§4) Mortality in percent (%) is determined 24 hours after contact to the treated surface. 100% mortality means that all test-insects are dead, whereas 0% means that not a single insect died.

[11] = test system: Nezara viridula; test: Nezara viridula spray test; details: in Hordeum vulgare, 96 h
Summary of the method: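 Barley plants infested with stink bug larvae were sprayed with compound diluted in water containing 1000 ppm emulsifier. Mortality (%) was scored after 4 days, 100% meaning all bugs killed.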

[12] = test system: Culex quinquefasciatus strain P00; test: Culex quinquefasciatus test (CULXFA surface treatment & contact assay); details: 24 hours after contact, read-out: efficacy (mortality)
Summary of the method: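 Compound dissolved in acetone (2 mg/ml) with 2000 ppm rapeseed oil methyl ester, applied to glazed tile and dried. Adult strain P00 mosquitoes exposed to the surface for 30 minutes. Percent mortality scored 24 hours after contact.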

[13] = test system: Musca domestica strain WHO-N; test: Musca domestica test (MUSCDO surface treatment & contact assay); details: 24 hours after contact, read-out: efficacy (mortality); for mortality at 20 mg/m2: surface concentration 20 mg/m^2, 30 minutes exposure
Experimental: Musca domestica Test (MUSCDO Surface Treatment & Contact Assay)
as §2
as §3, with “flies” for “mosquitoes”, “Musca domestica” for “Anopheles funestus”, “WHO-N” for “FUMOZ-R (Hunt et al., Med Vet Entomol. 2005 September; 19(3):271-5)”
as §4

[14] = test system: Rhipicephalus sanguineus; test: Rhipicephalus sanguineus in-vitro contact test with adult brown dog ticks; details: Rhipicephalus sanguineus; 5 μg/cm^2 (=500 g/ha), after 48 hours; read-out: efficacy (ticks dead or moribund)
Experimental: Rhipicephalus sanguineus—In-Vitro Contact Test with Adult Brown Dog Ticks
9 mg compound is solved in 1 ml acetone and diluted with acetone to the desired concentration. 250 μl of the test solution is filled in 25 ml glass test tubes and homogeneously distributed on the inner walls by rotation and tilting on a shaking device (2 h at 30 rpm). With a compound concentration of 900 ppm, an inner surface of 44.7 cm^2 and a homogeneous distribution, a dose of 5 μg/cm^2 is achieved.
After the solvent has evaporated, each test tube is filled with 5-10 adult brown dog ticks (Rhipicephalus sanguineus), closed with a perforated lid and incubated in a lying position at room temperature and relative humidity. After 48 hours efficacy is determined. The ticks are patted on the ground of the tubes and are incubated on a heating plate at 45-50° C. for at most 5 minutes. Immotile or uncoordinated moving ticks, which are not able to escape the heat by climbing upwards, are marked as dead or moribund.
An efficacy of 100% means all ticks are dead or moribund; 0% means no ticks are dead or moribund.

[15] = surface concentration 4 mg/m^2, 30 minutes exposure
[16] = surface concentration 20 mg/m^2, 30 minutes exposure

CC(c1ncnn1-c1ncccn1)N(CC1CC1)C(=O)c1cc(Cl)cc(Cl)c1Cl (stereo not shown) [Example I-009]
100%: mortality at 100 ppm [1] | pest or weed control at 160 µg/disc, 160 µg/well [2] | mortality at 4 ppm [3] | mortality at 20 ppm [3] | mortality at 500 g/ha [4] | mortality at 500 g/ha [5]

CC(c1ncnn1-c1ncccn1)N(CC1CC1)C(=O)c1cc(-c2ccc(F)cc2)cc(C(F)(F)F)c1 (stereo not shown) [Example I-012]
100%: mortality at 100 ppm [1] | pest or weed control at 160 µg/disc, 160 µg/well [2] | mortality at 20 ppm [3] | mortality at 500 g/ha [4] | mortality at 500 g/ha [5]

CC(c1ncnn1-c1ncccn1)N(CC1CC1)C(=O)c1cc(Cl)c(Cl)s1 (stereo not shown) [Example I-024]
85 to 100%: mortality at 4 mg/m2 [10, 15] | mortality at 20 mg/m2 [10, 16]
90 to 100%: mortality at 20 mg/m2 [9]
100%: pest or weed control at 5 µg/cm2, 5 µg/cm2 [6] | pest or weed control at 0.02 mg [7] | mortality at 100 ppm [1] | pest or weed control at 160 µg/disc, 160 µg/well [2] | mortality at 4 ppm [3] | mortality at 20 ppm [3] | mortality at 500 g/ha [8] | mortality at 500 g/ha [4]

CC(c1ncnn1-c1ncccn1)N(CC1CC1)C(=O)c1cc(Cl)cc(S(=O)(=O)C(F)(F)F)c1 (stereo not shown) [Example I-019]
80 to 100%: mortality at 4 mg/m2 [9] | mortality at 4 mg/m2 [12, 15] | mortality at 20 mg/m2 [12, 16] | mortality at 20 mg/m2 [13]
90 to 100%: mortality at 20 mg/m2 [9]
100%: pest or weed control at 5 µg/cm2, 5 µg/cm2 [6] | pest or weed control at 0.02 mg [7] | mortality at 100 ppm [1] | pest or weed control at 160 µg/disc, 160 µg/well [2] | mortality at 4 ppm [3] | mortality at 20 ppm [3] | mortality at 500 g/ha [11] | mortality at 500 g/ha [8] | mortality at 500 g/ha [4] | mortality at 500 g/ha [5]

CC(c1ncnn1-c1ncccn1)N(CC1CC1)C(=O)c1cc(C2CC2)on1 (stereo not shown) [Example I-028]
100%: mortality at 100 ppm [1] | pest or weed control at 160 µg/disc, 160 µg/well [2] | mortality at 500 g/ha [4]

CC(c1ncnn1-c1ncccn1)N(CC1CC1)C(=O)c1cc(-c2ccccc2)cc(C(F)(F)F)c1 (stereo not shown) [Example I-010]
100%: mortality at 100 ppm [1] | mortality at 500 g/ha [4]

CC(c1ncnn1-c1ncccn1)N(CC1CC1)C(=O)c1cncc(S(C)(=O)=O)c1 (stereo not shown) [Example I-002]
100%: pest or weed control at 5 µg/cm2, 5 µg/cm2 [6] | pest or weed control at 0.02 mg [7] | mortality at 100 ppm [1] | mortality at 500 g/ha [11]
80%: pest or weed control at 5 µg/cm2, 5 µg/cm2 [14]

C[C@@H](NC(=O)c1cc(OC(F)(F)F)cc(C2CC2)c1)c1ncnn1-c1ccc(C#N)cn1 [Example I-053]
80 to 100%: mortality at 4 mg/m2 [9] | mortality at 4 mg/m2 [13, 15] | mortality at 20 mg/m2 [13]
100%: pest or weed control at 5 µg/cm2, 5 µg/cm2 [14] | mortality at 100 ppm [1] | pest or weed control at 160 µg/disc, 160 µg/well [2] | mortality at 500 g/ha [5]
90 to 100%: mortality at 20 mg/m2 [9]
